8 molecules from ChEMBL document CHEMBL3627692, “Inhibition of mammalian carbonic anhydrase isoforms I-XIV with a series of phenolic acid esters” (Bioorg Med Chem, 2015) can be followed below.

Usually Ki stands for a measure of affinity in units of concentration, obtained from inhibition or displacement.

Some results are limits rather than exact numbers.

In one experiment the target is Carbonic anhydrase 2 (Homo sapiens, UniProt P00918). As to the kind of experiment: Inhibition of human carbonic anhydrase 2 preincubated for 15 mins by stopped-flow CO2 hydration assay.
A further experiment deals with Carbonic anhydrase 9 (Homo sapiens, UniProt Q16790). Put plainly: Inhibition of human catalytic domain of carbonic anhydrase 9 preincubated for 15 mins by stopped-flow CO2 hydration assay.
In another experiment the target is Carbonic anhydrase 1 (Homo sapiens, UniProt P00915). As to the kind of experiment: Inhibition of human carbonic anhydrase 1 preincubated for 15 mins by stopped-flow CO2 hydration assay.
The next experiment deals with Carbonic anhydrase 13 (Mus musculus, UniProt Q9D6N1). Put plainly: Inhibition of mouse carbonic anhydrase 13 preincubated for 15 mins by stopped-flow CO2 hydration assay.
The next experiment has as its target Carbonic anhydrase 3 (Homo sapiens, UniProt P07451). Put plainly: Inhibition of human carbonic anhydrase 3 preincubated for 15 mins by stopped-flow CO2 hydration assay.
A further experiment has as its target Carbonic anhydrase 4 (Homo sapiens, UniProt P22748). Put plainly: Inhibition of human carbonic anhydrase 4 preincubated for 15 mins by stopped-flow CO2 hydration assay.
The target in the next experiment is Carbonic anhydrase 14 (Homo sapiens, UniProt Q9ULX7). Put plainly: Inhibition of human carbonic anhydrase 14 preincubated for 15 mins by stopped-flow CO2 hydration assay.
For experiment [1], the target named is Carbonic anhydrase 5A, mitochondrial (Homo sapiens, UniProt P35218). Put plainly: Inhibition of human carbonic anhydrase 5A preincubated for 15 mins by stopped-flow CO2 hydration assay.
A further experiment deals with Carbonic anhydrase 7 (Homo sapiens, UniProt P43166). Put plainly: Inhibition of human carbonic anhydrase 7 preincubated for 15 mins by stopped-flow CO2 hydration assay.
The target in experiment [2] is Carbonic anhydrase 5B, mitochondrial (Homo sapiens, UniProt Q9Y2D0). As to the kind of experiment: Inhibition of human carbonic anhydrase 5B preincubated for 15 mins by stopped-flow CO2 hydration assay.
The next experiment concerns the target Carbonic anhydrase 12 (Homo sapiens, UniProt O43570). Put plainly: Inhibition of human catalytic domain of carbonic anhydrase 12 preincubated for 15 mins by stopped-flow CO2 hydration assay.
The target of the next experiment is Carbonic anhydrase 6 (Homo sapiens, UniProt P23280). Put plainly: Inhibition of human carbonic anhydrase 6 preincubated for 15 mins by stopped-flow CO2 hydration assay.
Chain of Carbonic anhydrase 6 (P23280 whole entry): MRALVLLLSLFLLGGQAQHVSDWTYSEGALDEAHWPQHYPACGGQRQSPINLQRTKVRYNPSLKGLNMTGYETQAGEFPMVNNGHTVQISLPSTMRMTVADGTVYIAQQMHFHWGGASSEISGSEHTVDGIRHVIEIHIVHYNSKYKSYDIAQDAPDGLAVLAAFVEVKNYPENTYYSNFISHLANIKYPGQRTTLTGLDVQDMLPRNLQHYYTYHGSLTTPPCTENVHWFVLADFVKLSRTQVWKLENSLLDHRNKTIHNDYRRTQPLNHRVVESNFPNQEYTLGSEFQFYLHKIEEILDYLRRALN

Chain of Carbonic anhydrase 13 (Q9D6N1 whole entry): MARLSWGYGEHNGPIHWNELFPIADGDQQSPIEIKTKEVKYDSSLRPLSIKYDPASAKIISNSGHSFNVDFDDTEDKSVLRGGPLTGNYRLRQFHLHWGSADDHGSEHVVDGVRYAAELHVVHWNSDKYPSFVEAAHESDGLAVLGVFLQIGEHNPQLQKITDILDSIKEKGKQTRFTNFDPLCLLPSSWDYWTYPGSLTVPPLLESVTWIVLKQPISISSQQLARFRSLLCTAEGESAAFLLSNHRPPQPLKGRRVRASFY
Chain of Carbonic anhydrase 3 (P07451 whole entry): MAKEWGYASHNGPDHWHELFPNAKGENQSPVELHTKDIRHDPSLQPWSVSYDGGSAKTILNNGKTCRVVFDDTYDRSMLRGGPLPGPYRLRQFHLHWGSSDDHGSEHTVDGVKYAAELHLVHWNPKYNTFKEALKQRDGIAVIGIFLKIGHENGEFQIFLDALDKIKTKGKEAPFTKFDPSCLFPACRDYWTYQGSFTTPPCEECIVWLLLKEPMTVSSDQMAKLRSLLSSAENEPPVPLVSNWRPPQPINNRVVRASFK
Chain of Carbonic anhydrase 1 (P00915 whole entry): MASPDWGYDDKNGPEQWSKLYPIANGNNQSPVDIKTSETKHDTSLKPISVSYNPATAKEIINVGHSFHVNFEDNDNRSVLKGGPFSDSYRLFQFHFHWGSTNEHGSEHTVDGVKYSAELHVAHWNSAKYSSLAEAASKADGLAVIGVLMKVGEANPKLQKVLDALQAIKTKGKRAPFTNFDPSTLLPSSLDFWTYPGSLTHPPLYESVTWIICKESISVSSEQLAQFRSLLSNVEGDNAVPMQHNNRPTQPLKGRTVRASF
Chain of Carbonic anhydrase 12 (O43570 whole entry, the tested form may be a part): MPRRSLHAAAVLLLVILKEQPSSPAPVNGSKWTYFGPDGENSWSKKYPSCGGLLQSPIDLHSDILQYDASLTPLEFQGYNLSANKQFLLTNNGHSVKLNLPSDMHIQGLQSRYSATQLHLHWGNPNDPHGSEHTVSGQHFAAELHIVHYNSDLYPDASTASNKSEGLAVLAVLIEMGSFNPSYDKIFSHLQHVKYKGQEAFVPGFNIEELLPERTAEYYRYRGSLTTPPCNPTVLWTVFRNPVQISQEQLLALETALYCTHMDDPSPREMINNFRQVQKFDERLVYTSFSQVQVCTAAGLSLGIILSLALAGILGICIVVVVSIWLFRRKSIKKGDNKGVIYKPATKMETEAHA
Chain of Carbonic anhydrase 5B, mitochondrial (Q9Y2D0 whole entry, the tested form may be a part): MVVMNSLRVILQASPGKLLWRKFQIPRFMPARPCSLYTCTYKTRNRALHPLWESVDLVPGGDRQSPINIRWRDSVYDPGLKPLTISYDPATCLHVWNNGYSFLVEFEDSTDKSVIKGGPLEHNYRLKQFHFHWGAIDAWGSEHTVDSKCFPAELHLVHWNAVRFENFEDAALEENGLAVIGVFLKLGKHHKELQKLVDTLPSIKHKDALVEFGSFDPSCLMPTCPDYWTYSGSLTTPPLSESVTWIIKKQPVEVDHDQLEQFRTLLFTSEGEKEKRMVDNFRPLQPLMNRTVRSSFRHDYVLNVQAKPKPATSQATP
Chain of Carbonic anhydrase 4 (P22748 whole entry): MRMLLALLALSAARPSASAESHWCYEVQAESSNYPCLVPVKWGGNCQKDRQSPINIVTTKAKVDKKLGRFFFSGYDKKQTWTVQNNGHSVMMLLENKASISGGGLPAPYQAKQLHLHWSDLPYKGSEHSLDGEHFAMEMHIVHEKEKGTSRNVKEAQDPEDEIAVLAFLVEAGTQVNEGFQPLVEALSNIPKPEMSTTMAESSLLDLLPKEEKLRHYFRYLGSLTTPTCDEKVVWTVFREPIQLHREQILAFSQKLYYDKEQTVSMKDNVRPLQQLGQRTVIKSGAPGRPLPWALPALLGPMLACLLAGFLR
Chain of Carbonic anhydrase 14 (Q9ULX7 whole entry): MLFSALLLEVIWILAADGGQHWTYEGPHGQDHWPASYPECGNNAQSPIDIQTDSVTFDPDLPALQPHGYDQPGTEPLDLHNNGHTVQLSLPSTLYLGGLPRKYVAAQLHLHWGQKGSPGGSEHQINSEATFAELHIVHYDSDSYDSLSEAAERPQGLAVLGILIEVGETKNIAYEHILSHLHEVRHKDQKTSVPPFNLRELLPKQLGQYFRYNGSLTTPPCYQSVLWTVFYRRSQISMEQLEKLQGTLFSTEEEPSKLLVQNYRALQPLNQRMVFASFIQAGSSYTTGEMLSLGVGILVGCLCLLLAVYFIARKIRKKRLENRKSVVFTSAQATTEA
Chain of Carbonic anhydrase 7 (P43166 whole entry): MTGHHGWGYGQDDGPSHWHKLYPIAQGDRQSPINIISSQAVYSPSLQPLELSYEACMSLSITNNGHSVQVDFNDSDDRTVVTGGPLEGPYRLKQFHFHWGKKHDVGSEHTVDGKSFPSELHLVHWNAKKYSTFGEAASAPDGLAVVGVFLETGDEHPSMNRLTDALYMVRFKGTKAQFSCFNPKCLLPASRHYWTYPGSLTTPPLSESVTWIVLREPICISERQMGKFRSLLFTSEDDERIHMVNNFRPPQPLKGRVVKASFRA
Chain of Carbonic anhydrase 5A, mitochondrial (P35218 whole entry): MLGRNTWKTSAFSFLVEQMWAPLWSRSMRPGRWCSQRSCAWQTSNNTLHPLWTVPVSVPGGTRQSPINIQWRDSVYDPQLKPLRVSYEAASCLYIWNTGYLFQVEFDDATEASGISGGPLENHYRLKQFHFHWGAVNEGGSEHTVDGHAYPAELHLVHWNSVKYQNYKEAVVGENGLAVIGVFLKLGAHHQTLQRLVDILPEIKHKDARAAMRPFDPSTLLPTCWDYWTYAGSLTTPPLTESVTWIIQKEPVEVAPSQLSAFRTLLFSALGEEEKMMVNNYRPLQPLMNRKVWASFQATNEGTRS

Turning to `COc1cc(/C=C/C(=O)OCCc2ccc(O)cc2)ccc1O`, the inhibition constant (Ki) on Carbonic anhydrase 2 is more than 50 µM; on Carbonic anhydrase 9, 0.81 µM; at Carbonic anhydrase 1, more than 50 µM; at Carbonic anhydrase 13, 0.93 µM; at Carbonic anhydrase 3 it was more than 50 µM.
Turning to `O=C(/C=C/c1ccc(O)c(O)c1)OCCc1ccc(OCCc2ccc(O)cc2)cc1`, the Ki at Carbonic anhydrase 2 was more than 50 µM; on Carbonic anhydrase 9, 0.93 µM; on Carbonic anhydrase 1 it was 5.23 µM; on Carbonic anhydrase 13, 0.84 µM; at Carbonic anhydrase 3 it was more than 50 µM.
In the case of `O=C(/C=C/c1ccc(O)cc1)OCCc1cccc(O)c1`, the inhibition constant (Ki) is more than 50 µM on Carbonic anhydrase 2; 0.82 µM at Carbonic anhydrase 9; 3.66 µM at Carbonic anhydrase 1; 11.6 µM at Carbonic anhydrase 13; more than 50 µM on Carbonic anhydrase 3.
On to `O=C(/C=C/c1ccc(O)cc1)OCc1ccccc1`, for which the Ki on Carbonic anhydrase 4 is 18.7 µM; on Carbonic anhydrase 2, more than 50 µM; on Carbonic anhydrase 14, 0.81 µM; in experiment [1], 0.97 µM; at Carbonic anhydrase 7, 0.72 µM; in [2] it was 0.8 µM. Further, the Ki at Carbonic anhydrase 12 is 29.4 µM; at Carbonic anhydrase 9 it was 0.86 µM; on Carbonic anhydrase 6 it was 0.73 µM; on Carbonic anhydrase 1, more than 50 µM; at Carbonic anhydrase 13, 8.92 µM; on Carbonic anhydrase 3, more than 50 µM.
With `O=C(/C=C/c1ccc(O)cc1)OCCc1ccc(O)cc1`, the Ki at Carbonic anhydrase 2 is more than 50 µM; on Carbonic anhydrase 9, 0.71 µM; at Carbonic anhydrase 1, 3.87 µM; on Carbonic anhydrase 13, 13.9 µM; at Carbonic anhydrase 3, more than 50 µM.
Regarding `COc1cc(/C=C/C(=O)OCCc2cccc(O)c2)ccc1O`, the Ki was more than 50 µM on Carbonic anhydrase 2; 0.99 µM on Carbonic anhydrase 9; more than 50 µM on Carbonic anhydrase 1; 0.91 µM at Carbonic anhydrase 13; more than 50 µM on Carbonic anhydrase 3.
For the molecule `O=C(/C=C/c1ccc(O)c(O)c1)OCCc1cccc(OCCc2cccc(O)c2)c1`, the Ki was more than 50 µM at Carbonic anhydrase 2; 0.97 µM at Carbonic anhydrase 9; 9.62 µM on Carbonic anhydrase 1; 0.9 µM on Carbonic anhydrase 13; more than 50 µM on Carbonic anhydrase 3.
`COc1cc(/C=C/C(=O)OCc2ccccc2)ccc1O` [BENZYL FERULATE]: the Ki on Carbonic anhydrase 2 is more than 50 µM; at Carbonic anhydrase 9, 1.03 µM; on Carbonic anhydrase 1, more than 50 µM; on Carbonic anhydrase 13 it was 0.94 µM; on Carbonic anhydrase 3, more than 50 µM.
